Measurements from the NIST ThermoML archive (doi:10.1016/j.jct.2016.10.023).
Numbers after ± are expanded uncertainties.

Experiment: xn = mol fraction of the nth substance listed
Settings: Constant-volume piezometry

CCCCC [pentane] + CCCO
Settings	mass density [kg/m3]
533.15 K, 7168 kPa, Fluid (supercritical or subcritical phases), x1 = 0.8	234.59 ± 1.2
533.15 K, 7364 kPa, Fluid (supercritical or subcritical phases), x1 = 0.8	245.22 ± 1.2
533.15 K, 7629 kPa, Fluid (supercritical or subcritical phases), x1 = 0.2	378.44 ± 1.9
533.15 K, 7638 kPa, Fluid (supercritical or subcritical phases), x1 = 0.8	258.44 ± 1.3
533.15 K, 7786 kPa, Fluid (supercritical or subcritical phases), x1 = 0.2	383.24 ± 1.9
533.15 K, 7963 kPa, Fluid (supercritical or subcritical phases), x1 = 0.8	272.4 ± 1.4
533.15 K, 8071 kPa, Fluid (supercritical or subcritical phases), x1 = 0.9	281.87 ± 1.4
533.15 K, 8098 kPa, Fluid (supercritical or subcritical phases), x1 = 0.2	391.08 ± 2
533.15 K, 8423 kPa, Fluid (supercritical or subcritical phases), x1 = 0.8	288.24 ± 1.4
533.15 K, 8569 kPa, Fluid (supercritical or subcritical phases), x1 = 0.9	301.54 ± 1.5
533.15 K, 8748 kPa, Fluid (supercritical or subcritical phases), x1 = 0.8	299.05 ± 1.5
533.15 K, 9002 kPa, Fluid (supercritical or subcritical phases), x1 = 0.9	312.17 ± 1.6
533.15 K, 9374 kPa, Fluid (supercritical or subcritical phases), x1 = 0.2	418.49 ± 2.1
533.15 K, 9413 kPa, Fluid (supercritical or subcritical phases), x1 = 0.8	315.21 ± 1.6
533.15 K, 10061 kPa, Fluid (supercritical or subcritical phases), x1 = 0.9	333.87 ± 1.7
533.15 K, 10217 kPa, Fluid (supercritical or subcritical phases), x1 = 0.8	333.69 ± 1.7
533.15 K, 10835 kPa, Fluid (supercritical or subcritical phases), x1 = 0.8	345.21 ± 1.7
533.15 K, 11530 kPa, Fluid (supercritical or subcritical phases), x1 = 0.9	353.95 ± 1.8
533.15 K, 12119 kPa, Fluid (supercritical or subcritical phases), x1 = 0.8	361.76 ± 1.8
533.15 K, 13530 kPa, Fluid (supercritical or subcritical phases), x1 = 0.2	470.12 ± 2.4
533.15 K, 17294 kPa, Fluid (supercritical or subcritical phases), x1 = 0.9	407.1 ± 2
533.15 K, 18236 kPa, Fluid (supercritical or subcritical phases), x1 = 0.8	418.01 ± 2.1
533.15 K, 19667 kPa, Fluid (supercritical or subcritical phases), x1 = 0.2	509.31 ± 2.6
533.15 K, 29155 kPa, Fluid (supercritical or subcritical phases), x1 = 0.8	466.47 ± 2.4
533.15 K, 29696 kPa, Fluid (supercritical or subcritical phases), x1 = 0.2	546.72 ± 2.8
533.15 K, 39686 kPa, Fluid (supercritical or subcritical phases), x1 = 0.8	495.86 ± 2.5
533.15 K, 44516 kPa, Fluid (supercritical or subcritical phases), x1 = 0.2	580.98 ± 2.9
543.15 K, 1370 kPa, Gas, x1 = 0.8	22.5 ± 0.07
543.15 K, 1634 kPa, Gas, x1 = 0.2	24.9 ± 0.08
543.15 K, 2088 kPa, Gas, x1 = 0.8	36.65 ± 0.11
543.15 K, 3070 kPa, Gas, x1 = 0.8	58.36 ± 0.18
543.15 K, 3378 kPa, Gas, x1 = 0.2	52.95 ± 0.16
543.15 K, 3671 kPa, Gas, x1 = 0.8	73.72 ± 0.23
543.15 K, 3909 kPa, Fluid (supercritical or subcritical phases), x1 = 0.9	83.3 ± 0.42
543.15 K, 4468 kPa, Gas, x1 = 0.2	91.32 ± 0.29
543.15 K, 4745 kPa, Fluid (supercritical or subcritical phases), x1 = 0.8	106.3 ± 0.54
543.15 K, 5031 kPa, Fluid (supercritical or subcritical phases), x1 = 0.2	114.24 ± 0.59
543.15 K, 5063 kPa, Fluid (supercritical or subcritical phases), x1 = 0.9	123.23 ± 0.63
543.15 K, 5339 kPa, Fluid (supercritical or subcritical phases), x1 = 0.9	133.99 ± 0.68
543.15 K, 5679 kPa, Fluid (supercritical or subcritical phases), x1 = 0.2	150.2 ± 0.77
543.15 K, 5755 kPa, Fluid (supercritical or subcritical phases), x1 = 0.8	140.17 ± 0.71
543.15 K, 6004 kPa, Fluid (supercritical or subcritical phases), x1 = 0.9	163.8 ± 0.83
543.15 K, 6026 kPa, Fluid (supercritical or subcritical phases), x1 = 0.2	175.44 ± 0.92
543.15 K, 6054 kPa, Fluid (supercritical or subcritical phases), x1 = 0.8	155.89 ± 0.8
543.15 K, 6187 kPa, Fluid (supercritical or subcritical phases), x1 = 0.2	189.45 ± 0.98
543.15 K, 6358 kPa, Fluid (supercritical or subcritical phases), x1 = 0.8	169.62 ± 0.87
543.15 K, 6471 kPa, Fluid (supercritical or subcritical phases), x1 = 0.2	219.88 ± 1.1
543.15 K, 6471 kPa, Fluid (supercritical or subcritical phases), x1 = 0.8	175.86 ± 0.89
543.15 K, 6570 kPa, Fluid (supercritical or subcritical phases), x1 = 0.9	189.27 ± 0.96
543.15 K, 6584 kPa, Fluid (supercritical or subcritical phases), x1 = 0.8	180.65 ± 0.92
543.15 K, 6716 kPa, Fluid (supercritical or subcritical phases), x1 = 0.2	245.23 ± 1.3
543.15 K, 6834 kPa, Fluid (supercritical or subcritical phases), x1 = 0.2	258.94 ± 1.3
543.15 K, 6836 kPa, Fluid (supercritical or subcritical phases), x1 = 0.8	192.97 ± 0.98
543.15 K, 6846 kPa, Fluid (supercritical or subcritical phases), x1 = 0.9	202.18 ± 1
543.15 K, 6875 kPa, Fluid (supercritical or subcritical phases), x1 = 0.2	262.64 ± 1.4
543.15 K, 6963 kPa, Fluid (supercritical or subcritical phases), x1 = 0.2	272.09 ± 1.4
543.15 K, 7154 kPa, Fluid (supercritical or subcritical phases), x1 = 0.2	290.25 ± 1.5
543.15 K, 7246 kPa, Fluid (supercritical or subcritical phases), x1 = 0.9	220.47 ± 1.1
543.15 K, 7269 kPa, Fluid (supercritical or subcritical phases), x1 = 0.8	213.64 ± 1.1
543.15 K, 7363 kPa, Fluid (supercritical or subcritical phases), x1 = 0.2	306.52 ± 1.6
543.15 K, 7405 kPa, Fluid (supercritical or subcritical phases), x1 = 0.8	219.4 ± 1.1
543.15 K, 7419 kPa, Fluid (supercritical or subcritical phases), x1 = 0.2	310.74 ± 1.6
543.15 K, 7511 kPa, Fluid (supercritical or subcritical phases), x1 = 0.2	318.45 ± 1.6
543.15 K, 7520 kPa, Fluid (supercritical or subcritical phases), x1 = 0.9	232.83 ± 1.2
543.15 K, 7591 kPa, Fluid (supercritical or subcritical phases), x1 = 0.9	236.29 ± 1.2
543.15 K, 7689 kPa, Fluid (supercritical or subcritical phases), x1 = 0.9	240.69 ± 1.2
543.15 K, 7747 kPa, Fluid (supercritical or subcritical phases), x1 = 0.8	234.47 ± 1.2
543.15 K, 7760 kPa, Fluid (supercritical or subcritical phases), x1 = 0.9	244 ± 1.2
543.15 K, 7964 kPa, Fluid (supercritical or subcritical phases), x1 = 0.2	340.91 ± 1.7
543.15 K, 7983 kPa, Fluid (supercritical or subcritical phases), x1 = 0.8	245.1 ± 1.2
543.15 K, 8042 kPa, Fluid (supercritical or subcritical phases), x1 = 0.2	343.7 ± 1.7
543.15 K, 8294 kPa, Fluid (supercritical or subcritical phases), x1 = 0.8	258.31 ± 1.3
543.15 K, 8708 kPa, Fluid (supercritical or subcritical phases), x1 = 0.8	272.26 ± 1.4
543.15 K, 8845 kPa, Fluid (supercritical or subcritical phases), x1 = 0.9	281.73 ± 1.4
